Data as given in US20250109127A1, “METHODS OF USE OF PHENOXYPROPYLAMINE COMPOUNDS TO TREAT DEPRESSION” (Minerva Neurosciences, Inc., priority 2013, published 2025).
“Also recorded” adds a separate entry of the source. One block for each compound: values may come before it.

How the values were obtained:
[1] = Pharmacokinetic study, plasma concentration on day 1 and day 14; format: in vivo; conditions: day 1 and day 14 after dosing with SON-117
From the text: were examined in pharmacokinetic studies.
FIG. 34 illustrates the plasma concentration of SON-117 as a function of time on day 1 after dosing with SON-117. FIG. 35 illustrates the plasma concentration of SON-117 as a function of time on day 14 after dosing with SON˜117.
FIG. 36 illustrates the plasma concentration of the M1 metabolite of SON-117 as a function of time on day 1 after dosing with SON-117. FIG. 37 illustrates the plasma concentration of the M1 metabolite of SON-117 as a function of time on day 14 after dosing with SON-117.

[2] = test system: dopamine release in the rat prefrontal cortex; assay: Microdialysis: dopamine release in prefrontal cortex after I.P. administration; format: in vivo; conditions: 3 mg/kg IP, n = 8
Method: The aim of the study was to evaluate, using microdialysis, the effects of an intraperitoneal (I.P.) administration in rats of three different doses of SON-117 on dopamine and its metabolites, serotonin and its metabolite (5-HIAA), and norepinephrine levels in prefrontal cortex.
Thirty-two adult male Wistar rats were used for the whole study (4 groups of eight animals planned for the study, Table 1).
Surgery was performed on rats weighing about 300 g at the beginning of the experiments. Rats were anaesthetized with Ketamine (50 mg/kg) & Xylazine (15 mg/kg) by intramuscular administration. The animals were placed in a stereotaxic apparatus in the flat-skull position at a constant setting of −3.3 mm between ear bars and the incisor bar. The animals were treated with a local anesthesic (xylocaine 1%, Astra Zeneca) and an analgesic (Temgesic, from Schering Plough, 0.05 mg/kg, s.c.). A rostrocaudal midline incision was made with a lancet to expose the dorsal skull surface. The “stereotaxic zero” was defined by the Bregma in accordance with Paxinos and Watson's atlas (1986). A hole was drilled in the skull with a drill and the meninges were pierced with a sterile needle to implant a CMA12 guide cannula which later received the dialysis probe.
Coordinates used for implanting guide cannula in prefrontal cortex from Bregma were anteroposterior 3.7 mm, mediolateral 0.8 mm, and dorsoventral −2 mm (top of the probe was at −5 mm). The guide cannula was fixed to the skull with two stainless steel screws (1.88 mm outside diameter) anchored. An application of dental cement was added. A plastic collar allowed each animal to be tethered to a Swivel assembly of the CMA 120 awake animal system. Following surgery, rats were kept in individual cages and allowed to recover for a minimum of 3-5 days before the experimentation. The rats were handled and put in plastic bowl for 10 min at least every day to habituate the animals to their new environment for the dialysis. An I.P. administration with saline was also performed every day.
Dialysis probes (CMA12/3 mm, membrane, 20 kD cut-off, Carnegie Medicine, Stockholm, Sweden), were carefully washed before inserting into the guide cannula. The wash was performed with the artificial cerebrospinal fluid (aCSF) medium (NaCl 147 mM, KCl 2.7 mM, CaCl2 1.2 mM, MgCl2 0.85 mM) at room temperature. The dialysis system was then equilibrated at 20° C. at a perfusion rate of 1 μl/min with a Carnegie pump (CMA100). All catheters (FEP tubing, internal volume of 1.2 μl/10 cm, and tubing adaptors) used for microdialysis were treated in the same conditions.
The probes duly prepared were inserted into the guide cannula and the CMA120 Swivel assembly secured to the animal using a plastic collar. Flow through the dialysis probe with aCSF was maintained at a rate of 1 μl/min during the whole experimentation. The first four fractions (corresponding to 2 hours) were discarded to avoid the effects of parenchymal disturbance and to ensure that an approximate steady-state level was reached. Fractions were then collected over a period of 8.5 h during which time the animals remained quiet. The dialysates were automatically collected with an autosampler (microfraction collector CMA 140, Carnegie Medicin) and stored at −80° C. until analysis. […] Perfusion was then maintained for 7 hours with aCSF. The dialysates (30 μl) were collected into 300 μl vials, transferred into dry ice and then kept frozen (−80° C.) until analysis. Frozen samples were shipped to a partner for analysis. At the end of the microdialysis study, a PBS with colored ink was perfused through the probe in order to visualize the dialyzed area.
Catecholamine assay: Concentrations of dopamine, DOPAC, HVA, 5-HIAA, 5-HT, and norepinephrin were determined for each sample by HPLC coupled with electrochemical detection.

[3] = test system: sleep EEG parameters; assay: Polysomnography / sleep EEG study; format: in vivo, human; conditions: escitalopram 20 mg
Method: In this study, certain pharmacodynamic sleep parameters predictive of antidepressant activity were monitored and measured. […] Three doses of SON-117 were tested (1 mg, 3 mg, 7.5 mg). […] In an embodiment, SON-117 affected sleep. In an embodiment, SON-117 affected REM sleep.
[…] subjects were tested in a sleep study, where 23 subjects were dosed with SON-117 in amounts of 1 mg up to 7.5 mg; 12 were given a placebo; and 8 were given escitalopram at a dose of 20 mg. Sleep was recorded in individual sound-attenuated and comfortably furnished bedrooms. During bedtime hours subjects were recumbent and the lights are turned off. The polysomnographic montage consisted of 4 EEG channels (C3A2, O1A2, C4A1, and O2A1), bilateral electro-oculograms, and 2 submental electromyograms. The different sleep parameters were derived with the Hypnos software from the visual scoring of the recordings at 30 sec epochs according to Rechtschaffen and Kales (1968) rules. Sleep continuity parameters comprise both sleep initiation and sleep maintenance variables. Sleep architecture parameters, which include REM sleep parameters, comprise stages distribution variables documenting duration and proportion of the different sleep stages and sleep profile variables that provide an outline on the time course of the different sleep stages during the recording period. All night sleep EEG spectral analysis was carried out on the C3-A2 derivation by means a fast Fourrier transform algorithm. Epoch length was 2 seconds at a sampling rate of 256 Hz and truncating error was reduced by applying a Hanning window. Sleep visual scores of each 30-second epoch was synchronised with power density values in order to allow the analysis of power density within in specific period of time such as REM and non REM sleep.

[4] = test system: animals exposed to chronic mild stress; assay: Chronic mild stress (CMS) model, consumption of 1% sucrose solution; format: in vivo, rat
Method: Male Wistar rats (Charles River, Germany) were brought into the laboratory one month before the start of the experiment. Except as described below, the animals were singly housed with food and water freely available, and were maintained on a 12-h light/dark cycle, in a constant temperature (22±2° C.) and humidity (50±5%) conditions.
After a period of 2 weeks of adaptation to laboratory and housing conditions, the animals were first trained to consume a 1% sucrose solution; training consisted of nine 1 h baseline tests in which sucrose was presented, in the home cage, following 14 h food and water deprivation; the sucrose intake was measured by weighing pre-weighed bottles containing the sucrose solution, at the end of the test. Subsequently, the sucrose consumption was monitored, under similar conditions, at weekly intervals throughout the whole experiment.
On the basis of their sucrose intakes in the final baseline test, the animals were divided into two matched groups. One group of animals was subjected to the chronic mild stress procedure for a period of 8 consecutive weeks. Each week of stress regime consisted of: two periods of food or water deprivation, two periods of 45 degree cage tilt, two periods of intermittent illumination (lights on and off every 2 h), two periods of soiled cage (250 ml water in sawdust bedding), one period of paired housing, two periods of low intensity stroboscopic illumination (150 flashes/min), and three periods of no stress. All stressors were 10-14 h of duration and were applied individually and continuously, day and night. Control animals were housed in separate rooms and had no contact with the stressed animals. They were deprived of food and water for the 14 h preceding each sucrose test, but otherwise food and water were freely available in the home cage.
On the basis of their sucrose intakes following initial 2 weeks of stress, both the stressed and the control groups were each divided further into matched subgroups (n=8), and for subsequent five weeks they received once daily intraperitoneal injections of vehicle (0.5% hydroxypropylmethylcellulose, 1 ml/kg), SON-117 (0.001, 0.01, 0.1 and 1 mg/kg) or imipramine (10 mg/kg) as the reference treatment. The drugs were administered at approx. 10:00 AM and the weekly sucrose tests were carried out 24 h following the last drug injections. After five weeks all treatments were terminated and one additional sucrose test was carried out after one week of withdrawal. Stress was continued throughout the period of treatment and withdrawal.
(§1) After completion of the administration and withdrawal period, all control and stressed animals were placed in an open field (100 cm in diameter, 35 cm high) and allowed to explore two identical objects (cylinder-shaped object with walls painted white, 7 cm in diameter, 11 cm high) for the time required to complete 15 s of exploration of either object. For the retention trial conducted one hour later, one of the objects presented previously was replaced with a novel object (prism-shaped object with walls painted black, 5 cm wide, 14 cm high). Rats were returned to the open field for 5 min and the duration of exploration (i.e. sitting in close proximity to the objects, sniffing or touching them) of each object was measured separately by a trained observer. The data were calculated according to the following formula: [time of novel object exploration divided by time of novel plus familiar object exploration multiplied by 100]. The CMS and NOR data were analyzed by multiple analyses of variance with three between-subjects factors (stress/control, drug treatments and intakes in successive sucrose tests). The Fisher's LSD test was used for the post-hoc comparisons of means.

[5] = test system: animals exposed to chronic mild stress; assay: Novel object recognition test after CMS and treatment withdrawal; format: in vivo, rat; conditions: imipramine 10 mg/kg IP, one week after withdrawal
From the text: as §1

AUC, dependence on dose [1]: dose-proportional increase
Cmax, dependence on dose [1]: dose-proportional increase
SMILES: OCc1nnc(-c2cc3c(OC[C@@H](O)CN4CCC(c5ccc(Cl)c(Cl)c5)CC4)cccc3o2)o1 [M1]

SMILES: Cc1nnc(-c2cc3c(OC[C@@H](O)CN4CCC(c5ccc(Cl)c(Cl)c5)CC4)cccc3o2)o1.Cl [SON117]
Dopamine release, MEAN ([2]; T0-T30 min): 129.47 % of respective basal
Dopamine release, MEAN ([2]; T30-T1 h): 110.54 % of respective basal
Dopamine release, MEAN ([2]; T1 h 30-T2 h): 134.25 % of respective basal
Dopamine release, MEAN ([2]; T1 h-T1 h 30): 169.31 % of respective basal
Dopamine release, MEAN ([2]; T2 h 30-T3 h): 115.17 % of respective basal
Dopamine release, MEAN ([2]; T2 h-T2 h 30): 106.18 % of respective basal
Dopamine release, MEAN ([2]; T3 h 30-T4 h): 113.02 % of respective basal
Dopamine release, MEAN ([2]; T3 h-T3 h 30): 117.50 % of respective basal
Dopamine release, MEAN ([2]; T4 h 30-T5 h): 111.42 % of respective basal
Dopamine release, MEAN ([2]; T4 h-T4 h 30): 126.77 % of respective basal
Dopamine release, MEAN ([2]; T5 h 30-T6 h): 148.15 % of respective basal
Dopamine release, MEAN ([2]; T5 h-T5 h 30): 123.35 % of respective basal
Dopamine release, MEAN ([2]; T6 h 30-T7 h): 167.43 % of respective basal
Dopamine release, MEAN ([2]; T6 h-T6 h 30): 131.63 % of respective basal
Dopamine release, MEAN ([2]; T-30 min-T0 (before administration)): 96.15 % of respective basal
Dopamine release, MEAN ([2]; T-1 h 30-T-1 h (before administration)): 104.41 % of respective basal
Dopamine release, MEAN ([2]; T-1 h-T-30 min (before administration)): 99.29 % of respective basal

SMILES: CN(C)CCC[C@@]1(c2ccc(F)cc2)OCc2cc(C#N)ccc21 [escitalopram, reference compound]
pharmacodynamic sleep parameters, positive comparator [3]: behaved as expected

SMILES: CN(C)CCCN1c2ccccc2CCc2ccccc21 [imipramine, reference compound]
treatment time until increase in sucrose intake in stressed animals reached statistical significance vs Week 0 ([4]; imipramine 10 mg/kg IP): four
effect on sucrose intake one week after cessation of treatment ([4]; imipramine 10 mg/kg IP, stressed animals): maintained
sucrose intake in control animals, compared to vehicle ([4]; once daily IP for five weeks, imipramine 10 mg/kg, SON-117 all doses (0.001, 0.01, 0.1 and 1 mg/kg)): no significant effect
sucrose consumption in stressed animals, compared to vehicle ([4]; once daily IP for five weeks, imipramine 10 mg/kg, SON-117 all four doses (0.001-1 mg/kg)): gradually increased; also recorded: fully reversed
recognition index in control animals [5]: decreased
effect against the CMS-induced deficit in recognition index ([5]; stressed animals): ineffective
